Assays:
[1] = Clinical study safety: heart rate; assay type: in vivo, human; details: combined placebo + Compound 1 patients; for Mean Heart Rate: Baseline 76.7
Excerpt: (§1) The study was configured as a placebo-controlled, double-masked, randomized, Phase 2 study in approximately 100 subjects with moderately severe to severe NPDR (diabetic retinopathy severity score [DRSS] Level 47 or 53, see FIG. 1) or mild PDR (DRSS Level 61), evaluating safety and efficacy following administration of Compound 1 twice daily for 24 weeks. The study was configured for a 1:1 randomization (placebo: Compound 1). Randomization was stratified by level of disease severity (NPDR or PDR). Subjects with mild PDR were capped at 20% for each arm. Efficacy evaluations at 12 and/or 24 weeks included DRSS, center-involved diabetic macular edema (DME), moderate PDR or PDR-related adverse events (AEs), best-corrected visual acuity (BCVA), and central subfield thickness (CST). Further experimental procedures and results are described below.
(§2) At the Qualification/Baseline (Visit 2, Day 1): • The subject was randomized into the study. • Study medication was dispensed in accordance with the subjects randomized treatment arm. • Blood samples were drawn pre-dose for baseline levels and on Visit 9 (Week 24) for exploratory biomarker processing (i.e., cytokine and Ref-1 levels) to evaluate pharmacodynamic properties. • Subjects were instructed to administer their study medication (Compound 1 or placebo) each day, with 3 tablets every morning and 2 tablets every evening. Study medication was to be taken at approximately the same time each day and may be taken with or without food.
At the Second Treatment Visit (Visit 6, Week 12±2 Days), subjects were to return to the site for the following series of safety and efficacy assessments: drug accountability, concomitant medications, urine pregnancy test (only for women of childbearing potential), HR/BP/vital signs, BCVA (ETDRS), DRSS, CST (SD-OCT), blood draw for PK, blood chemistry, blood hematology, biomicroscopy, ophthalmoscopy, IOP, eGFR, and AEs. Following the completion of the assessments, used medication kits were collected for accountability (by counting the number of unused tablets), and new study medication kits dispensed.
At the Third Treatment Visit (Visit 9, Week 24±2 Days), subjects were to return to the site for the following series of safety and efficacy assessments: drug accountability, concomitant medications, urine pregnancy test (only for women of childbearing potential), physical examination, HR/BP/vital signs, BCVA (ETDRS), DRSS, CST (SD-OCT), blood chemistry, blood hematology, biomicroscopy, ophthalmoscopy, IOP, eGFR, AEs, and blood draw for exploratory biomarkers (ELISA, cytokine panel, comprehensive metabolic panel). Visit 9 (Week 24) was the end of the treatment period. Study medication was returned for accountability (by counting the number of unused tablets), and no further study medication dispensed.
Safety endpoints include: • Incidence and severity of systemic and ocular AEs, • Change from baseline in body system assessments, • Change from baseline in vital sign measurements, • Change from baseline in clinical laboratory assay results (blood chemistry, hematology), • Change from baseline in intraocular pressure (IOP), • Change from baseline in slit-lamp examination parameters, • Change from baseline in dilated funduscopic examination parameters, • Percent of subjects with a decrease of ≥10 letters in BCVA compared to baseline at Week 12 and Week 24, • Percent of subjects progressing to center-involved DME (eligible for rescue treatment at Week 12 and Week 24), • Percent of subjects with a worsening in DRSS of ≥2 steps in the study eye at Week 12 and Week 24, • Percent of subjects developing anterior segment neovascularization at Week 12 and Week 24, • Percent of subjects rescued (intravitreal anti-VEGF injection, laser PRP, focal/grid laser treatment, or surgery [vitrectomy]) at the discretion of the Investigator at Week 12 and Week 24, and • Change from baseline in estimated glomerular filtration rate (eGFR) at Week 12 and Week 24. […]

[2] = Clinical study safety: treatment-emergent adverse events; assay type: in vivo, human
Excerpt: as §1, §2
Safety endpoints include: • Incidence and severity of systemic and ocular AEs, • Change from baseline in body system assessments, • Change from baseline in vital sign measurements, • Change from baseline in clinical laboratory assay results (blood chemistry, hematology), • Change from baseline in intraocular pressure (IOP), • Change from baseline in slit-lamp examination parameters, • Change from baseline in dilated funduscopic examination parameters, • Percent of subjects with a decrease of ≥10 letters in BCVA compared to baseline at Week 12 and Week 24, • Percent of subjects progressing to center-involved DME (eligible for rescue treatment at Week 12 and Week 24), • Percent of subjects with a worsening in DRSS of ≥2 steps in the study eye at Week 12 and Week 24, • Percent of subjects developing anterior segment neovascularization at Week 12 and Week 24, • Percent of subjects rescued (intravitreal anti-VEGF injection, laser PRP, focal/grid laser treatment, or surgery [vitrectomy]) at the discretion of the Investigator at Week 12 and Week 24, and • Change from baseline in estimated glomerular filtration rate (eGFR) at Week 12 and Week 24.
Analysis populations included: • Modified Intention-to-Treat (mITT): The mITT includes all randomized subjects who received at least one dose of study treatment and at least one post-dose efficacy measurement. […] The PP population will be used for primary endpoint analysis and to analyze efficacy endpoints. • All Randomized Population (ARP): The ARP includes all randomized subjects. This population is also known as the Intent-to-Treat (ITT) population. The ARP will be used in confirmatory efficacy analyses. • Safety Population (SP): The SP includes all randomized subjects who have received at least one dose of study treatment. The SP was used to summarize safety variables.
Provided below is data on safety on Compound 1 orally administered to patients according to the study protocol described herein. The data is from one-hundred patients that were enrolled in the trial. Per the study protocol described above, patients enrolled in the study were randomized 1:1 for receipt of placebo versus Compound 1. The safety data below is the combined results from patients that received placebo and those received Compound 1.
Table 9 below provides a summary of occurrence of adverse events across 100 subjects enrolled in the study, which is the combined results from patients that received placebo and those that received Compound 1. […]

[3] = 100 subjects, combined placebo + Compound 1, bilateral ocular events counted twice
[4] = 100 subjects, combined placebo + Compound 1 patients

## CCCCCCCCC/C(=C\C1=C(C)C(=O)C(OC)=C(OC)C1=O)C(=O)O [Compound 1, (E)-2-((4,5-dimethoxy-2-methyl-3,6-dioxocyclohexa-1,4-dien-1-yl)methylene)undecanoic acid]
[1]; Week 12, 62 subjects
  Mean Heart Rate: 76.3 beats/min
[1]; Week 24, 27 subjects
  Mean Heart Rate: 80.7 beats/min
[1]; week 12, 62 subjects
  change in mean heart rate relative to Baseline: +0.9 beats/min
  increase in mean heart rate relative to Baseline: 1%
[1]; week 24, 27 subjects
  change in mean heart rate relative to Baseline: +4.3 beats/min
  increase in mean heart rate relative to Baseline: 6%
[2]; [3]
  No. of Subjects That Experienced a Treatment-Emergent Adverse the Category: Anterior (eye disorder): 5
  No. of Subjects That Experienced a Treatment-Emergent Adverse the Category: Posterior (eye disorder): 9
[2]; [4]
  No. of Subjects That Experienced a Treatment-Emergent Adverse the Category: Blood or lymphatic system disorder: 1
  No. of Subjects That Experienced a Treatment-Emergent Adverse the Category: Cardiac disorder: 1
  No. of Subjects That Experienced a Treatment-Emergent Adverse the Category: Ear or labyrinth disorder: 1
  No. of Subjects That Experienced a Treatment-Emergent Adverse the Category: Eye disorder: 9
  No. of Subjects That Experienced a Treatment-Emergent Adverse the Category: Gastrointestinal disorder: 9
  No. of Subjects That Experienced a Treatment-Emergent Adverse the Category: General disorders or administration site condition: 1
  No. of Subjects That Experienced a Treatment-Emergent Adverse the Category: Hepatobiliary disorder: 1
  No. of Subjects That Experienced a Treatment-Emergent Adverse the Category: Infection or infestation: 9
  No. of Subjects That Experienced a Treatment-Emergent Adverse the Category: Injury, poisoning, or procedural complication: 1
  No. of Subjects That Experienced a Treatment-Emergent Adverse the Category: Investigation: 3
  No. of Subjects That Experienced a Treatment-Emergent Adverse the Category: Metabolism or nutrition disorder: 1
  No. of Subjects That Experienced a Treatment-Emergent Adverse the Category: Musculoskeletal and connective tissue disorder: 5
  No. of Subjects That Experienced a Treatment-Emergent Adverse the Category: Nervous system disorder: 7
  No. of Subjects That Experienced a Treatment-Emergent Adverse the Category: Not coded: 4
  No. of Subjects That Experienced a Treatment-Emergent Adverse the Category: Psychiatric disorder: 2
  No. of Subjects That Experienced a Treatment-Emergent Adverse the Category: Reproductive system or breast disorder: 1
  No. of Subjects That Experienced a Treatment-Emergent Adverse the Category: Respiratory, thoracic, or mediastinal disorder: 2
  No. of Subjects That Experienced a Treatment-Emergent Adverse the Category: Skin and subcutaneous tissue disorder: 7
  No. of Subjects That Experienced a Treatment-Emergent Adverse the Category: Vascular disorder: 1
[2]; administered according to study protocol, 600 mg/day oral, 24 weeks
  safety profile: good safety profile
[2]; from 100 subjects, combined placebo + Compound 1 patients
  total treatment-emergent adverse events observed: 83
[2]; of 100 subjects, combined placebo + Compound 1 patients
  subjects reporting at least one treatment-emergent adverse event: 41

Source: patent publication US20260108483A1, “METHODS AND COMPOSITIONS FOR PREVENTING THE PROGRESSION OF DIABETIC RETINOPATHY AND RELATED CONDITIONS” (Opus Genetics, Inc., priority 2023, published 2026)
